Measurements reported in US5447942A, “N-derivatives of (phenylethyl-β-ol) amine, a process for their preparation and pharamaceutical compositions containing the same” (Societe de Conseils de Recherches et d'Applications …, priority 1992, dated 1995).
Read-outs that look alike come from different tables or passages of the source. Each block holds one molecule with its values, some of them ahead of it.

How the values were obtained:
β adrenoceptors = assay: radioligand binding studies in lung membrane (Table A, binding affinity)
Text: The results are summarised in Table A. Generally, the activity is better for the trans than the cis isomer.

[1] = system: acetylcholine induced bronchoconstriction; assay: inhibition of acetylcholine induced bronchoconstriction, Konzett and Rossler method (Table B); assay type: in vivo, Male Hartley Guinea Pigs; conditions: IV; for inhibition in vivo at 0.13 µmol/kg / inhibition in vivo at 0.42 µmol/kg / inhibition in vivo at 1.53 µmol/kg / inhibition in vivo at 3.6 µmol/kg / inhibition in vivo at 0.46 µmol/kg / inhibition in vivo at 1.5 µmol/kg: Cavia porcellus
Protocol: Male Hartley Guinea Pigs (450-500 g) were anaesthetised with ethyl carbamate and prepared for recording bronchoconstriction according to Konzett and Rossler method (Naunym Schmiedebergers Arch. Exp. Path. Pharmakol (1940) 195, 71). To abolish spontaneous respiration, an injection IV of vecuronium bromide (2 mg/kg) was made. Bronchoconstriction was induced by IV injection of Acetylcholine and the animals received one dose of β agonist compound (IV) 5 minutes later.

Ki (β adrenoceptors): 80 nM
Structure (SMILES): COc1cc([C@H]2CC[C@H](CNCC(O)c3ccc(O)c(CO)c3)O2)cc(OC)c1OC (relative stereo) [Example 2 (trans), 2-(3',4',5'-trimethoxyphenyl)-5-[N-[β-(3'-hydroxymethyl-4'-hydroxy-phenyl)-β-hydroxy-ethyl]-aminomethyl]-tetrahydrofuran]
bronchoconstriction protection, duration of action ([1]; 0.13 μmol/kg): 30 mn | bronchoconstriction protection, duration of action ([1]; 0.42 μmol/kg): > 50 mn | inhibition in vivo at 0.13 µmol/kg ([1]; 5 min, 0.13 μmol/kg, 5 mn, read-out: bronchoconstriction protection, score 5 mn): > 75% | inhibition in vivo at 0.42 µmol/kg ([1]; 5 min, 0.42 μmol/kg, 5 mn, read-out: bronchoconstriction protection, score 5 mn): > 75% | inhibition in vivo at 0.13 µmol/kg ([1]; 0.25 h, 0.13 μmol/kg, 15 mn, read-out: bronchoconstriction protection, score 15 mn): 50 to 75% | inhibition in vivo at 0.42 µmol/kg ([1]; 0.25 h, 0.42 μmol/kg, 15 mn, read-out: bronchoconstriction protection, score 15 mn): > 75% | inhibition in vivo at 0.13 µmol/kg ([1]; 0.5 h, 0.13 μmol/kg, 30 mn, read-out: bronchoconstriction protection, score 30 mn): 20 to 50% | inhibition in vivo at 0.42 µmol/kg ([1]; 0.5 h, 0.42 μmol/kg, 30 mn, read-out: bronchoconstriction protection, score 30 mn): > 75%

Ki (β adrenoceptors): 1600 nM
Structure (SMILES): COc1ccc([C@H]2CC[C@H](CNCC(O)c3ccc(O)c(CO)c3)O2)c(OC)c1OC (relative stereo) [Example 3 (trans), 2-(2',3',4'-trimethoxyphenyl)-5-[N-[β-(3'-hydroxymethyl-4'-hydroxy-phenyl)-β-hydroxy-ethyl]-aminomethyl]-tetrahydrofuran]
bronchoconstriction protection, duration of action ([1]; 1.53 μmol/kg): 5 mn | bronchoconstriction protection, duration of action ([1]; 3.6 μmol/kg): 30 mn | inhibition in vivo at 1.53 µmol/kg ([1]; 5 min, 1.53 μmol/kg, 5 mn, read-out: bronchoconstriction protection, score 5 mn): 20 to 50% | inhibition in vivo at 3.6 µmol/kg ([1]; 5 min, 3.6 μmol/kg, 5 mn, read-out: bronchoconstriction protection, score 5 mn): 50 to 75% | inhibition in vivo at 1.53 µmol/kg ([1]; 0.25 h, 1.53 μmol/kg, 15 mn, read-out: bronchoconstriction protection, score 15 mn): < 20% | inhibition in vivo at 3.6 µmol/kg ([1]; 0.25 h, 3.6 μmol/kg, 15 mn, read-out: bronchoconstriction protection, score 15 mn): 20 to 50% | inhibition in vivo at 1.53 µmol/kg ([1]; 0.5 h, 1.53 μmol/kg, 30 mn, read-out: bronchoconstriction protection, score 30 mn): < 20% | inhibition in vivo at 3.6 µmol/kg ([1]; 0.5 h, 3.6 μmol/kg, 30 mn, read-out: bronchoconstriction protection, score 30 mn): 20 to 50%

Ki (β adrenoceptors): 347 nM
Structure (SMILES): OCc1cc(C(O)CNC[C@@H]2CC[C@H](c3ccccc3Cl)O2)ccc1O (relative stereo) [Example 4 (cis), 2-(2'-chlorophenyl)-5-[N-[β-(3'-hydroxymethyl-4'-hydroxy-phenyl)-β-hydroxy-ethyl]-aminomethyl]-tetrahydrofuran]
bronchoconstriction protection, duration of action ([1]; 0.46 μmol/kg): 10 mn | bronchoconstriction protection, duration of action ([1]; 1.5 μmol/kg): < 40 mn | inhibition in vivo at 0.46 µmol/kg ([1]; 5 min, 0.46 μmol/kg, 5 mn, read-out: bronchoconstriction protection, score 5 mn): 50 to 75% | inhibition in vivo at 1.5 µmol/kg ([1]; 5 min, 1.5 μmol/kg, 5 mn, read-out: bronchoconstriction protection, score 5 mn): 50 to 75% | inhibition in vivo at 0.46 µmol/kg ([1]; 0.25 h, 0.46 μmol/kg, 15 mn, read-out: bronchoconstriction protection, score 15 mn): < 20% | inhibition in vivo at 1.5 µmol/kg ([1]; 0.25 h, 1.5 μmol/kg, 15 mn, read-out: bronchoconstriction protection, score 15 mn): 50 to 75% | inhibition in vivo at 0.46 µmol/kg ([1]; 0.5 h, 0.46 μmol/kg, 30 mn, read-out: bronchoconstriction protection, score 30 mn): < 20% | inhibition in vivo at 1.5 µmol/kg ([1]; 0.5 h, 1.5 μmol/kg, 30 mn, read-out: bronchoconstriction protection, score 30 mn): 20 to 50%

Ki (β adrenoceptors): 1900 nM
Structure (SMILES): COc1cc([C@H]2CC[C@@H](CCCNCC(O)c3ccc(O)c(CO)c3)O2)cc(OC)c1OC (relative stereo) [Example 15 (cis), 2-(3',4',5'-trimethoxyphenyl)-5-[-N-[β-(3'-hydroxymethyl-4'-hydroxy-phenyl)-β-hydroxy-ethyl]-aminopropyl]-tetrahydrofuran]

Ki (β adrenoceptors): 50 nM
Structure (SMILES): COc1cc(C2CCC(CNCC(O)c3ccc(O)c(CO)c3)O2)cc(OC)c1OC (single isomer, unassigned) [Example 2 (trans) (+), 2-(3',4',5'-trimethoxyphenyl)-5-[N-[β-(3'-hydroxymethyl-4'-hydroxy-phenyl)-β-hydroxy-ethyl]-aminomethyl]-tetrahydrofuran]

Ki (β adrenoceptors): 350 nM
Structure (SMILES): COc1cc(C2CCC(CNCC(O)c3ccc(O)c(CO)c3)O2)cc(OC)c1OC (single isomer, unassigned) [Example 2 (trans) (-), 2-(3',4',5'-trimethoxyphenyl)-5-[N-[β-(3'-hydroxymethyl-4'-hydroxy-phenyl)-β-hydroxy-ethyl]-aminomethyl]-tetrahydrofuran]

Ki (β adrenoceptors): 520 nM
Structure (SMILES): CCCC1CCC(CNCC(O)c2ccc(O)c(CO)c2)O1 (stereo not drawn) [Example 11, 2-propyl-5-[N-[β-(3'-hydroxymethyl-4'-hydroxy-phenyl)-β-hydroxy-ethyl]-aminomethyl]-tetrahydrofuran]
